Legend:
Format in all cases: in vivo
[1] = system: upland rice (Oryza sp., var. Tebonnet, RICE); test: Pre-emerge test, crop safety; conditions: crop damage rating 0-100, 14 days after application
How it was run: (§1)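 Visual ratings on a 0-100 scale (0 no damage, 100 all plants dead) were taken at 14 days after treatment. Rates of 15-1000 g ai/ha in acetone, 187 l/ha, were sprayed onto soil one day after planting (pre-emerge) or onto 2-3 leaf plants with 0.25% v/v surfactant (post-emerge).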

[2] = system: field corn (Zea mays L., var. Dekalb 535, CORN); test: Pre-emerge test, crop safety; conditions: crop damage rating 0-100, 14 days after application
How it was run: as §1

[3] = system: velvetleaf (Abutilon theophrasti, ABUTH); test: Pre-emerge test, greenhouse herbicide activity screening; conditions: phytotoxicity rating 0-100, 14 days after application
Description: (§2) A standard greenhouse herbicide activity screening system was used to evaluate the herbicidal efficacy and crop safety of these test compounds. Seven broadleaf weed species including redroot pigweed (Amaranthus retroflexus, AMARE, velvetleaf (Abutilon theophrasti, ABUTH), sicklepod (Cassia obtusifolia, CASOB), ivyleaf morningglory (Ipomoea hederacea, IPOHE), lambsquarters (Chenopodium album, CHEAL), common ragweed (Ambrosia artemisizfolia L., AMBEL), and cocklebur (Xanthium strumarium, XANST) were used as test species. Four grass weed species including green foxtail (Setaria viridis, SETVI), barnyardgrass (Echinochloa crus-galli, ECHCG), johnsongrass (Sorghum halepense, SORHA), and large crabgrass (Digitaria sanguinalis, DIGSA) were also used. In addition, three crop species, field corn (Zea mays L., var. Dekalb 535, CORN), soybean (Glycine max L., var. Pella 86, SOY), and is upland rice (Oryza sp., var. Tebonnet, RICE) were included.
(§3) All plants were grown in 10 cm square plastic pots which were filled with a sandy loam soil mix. For pre-emerge tests, seeds were planted one day prior to application of the test compounds. For post-emerge tests, seeds were planted 8-21 days prior to the test to allow emergence and good foliage development prior to application of the test substances. At the time of the post-emerge application, plants of all species were usually at the 2-3 leaf stage of development.
(§4) All test compounds Were dissolved in acetone and applied to the test units in a volume of 187 l /ha. Test materials were applied at rates ranging from 15 g ai/ha to 1000 g ai/ha using a track sprayer equipped with a TJ8001E even flow flat fan spray nozzle. Plants were arranged on a shelf so that the top of the canopy (post-emerge) or top of the soil surface (pre-emerge) was 40-45 cm below the nozzle. Pressurized air was used to force the test solution through the nozzle as it was mechanically advanced (via electrically driven chain drive) over the top of all test plants/pots. This application simulates a typical commercial field herbicide application.
(§5) In the post-emerge test, a commercial non-ionic surfactant was also included (0.25% v/v) to enhance wetting of the leaf surfaces of target plants. Immediately after application, test units of the pre-emerge applications were watered at the soil surface to incorporate the test materials. Subsequently, these test units were bottom-watered. Post-emerge test units were always bottom-watered.
(§6) At 14 days after application of the test materials, phytotoxicity ratings were recorded. A rating scale of 0-100 was used as previously described in Research Methods in Weed Science, 2nd edition, B. Truelove, Ed., Southern Weed Science Society, Auburn University, Auburn, Ala. 1977. Briefly, “0” corresponds to no damage and “100” corresponds to complete death of all plants in the test unit. This scale was used both to determine efficacy against weed species and damage to crop species. Herbicide activity data for various compounds of this invention, which are shown by compound No. in Tables 1-8, are shown in Tables 11 and 12.

[4] = system: sicklepod (Cassia obtusifolia, CASOB); test: as above; conditions: phytotoxicity rating 0-100, 14 days after application
Description: as §2, §3, §4, §5, §6

[5] = system: ivyleaf morningglory (Ipomoea hederacea, IPOHE); test: as above; conditions: phytotoxicity rating 0-100, 14 days after application
Description: as §2, §3, §4, §5, §6

[6] = system: green foxtail (Setaria viridis, SETVI); test: as above; conditions: phytotoxicity rating 0-100, 14 days after application
Description: as §2, §3, §4, §5, §6

[7] = system: barnyardgrass (Echinochloa crus-galli, ECHCG); test: as above; conditions: phytotoxicity rating 0-100, 14 days after application
Description: as §2, §3, §4, §5, §6

[8] = system: lambsquarters (Chenopodium album, CHEAL); test: as above; conditions: phytotoxicity rating 0-100, 14 days after application
Description: as §2, §3, §4, §5, §6

[9] = system: large crabgrass (Digitaria sanguinalis, DIGSA); test: as above; conditions: phytotoxicity rating 0-100, 14 days after application
Description: as §2, §3, §4, §5, §6

[10] = system: velvetleaf (Abutilon theophrasti, ABUTH); test: Post-emerge test, greenhouse herbicide activity screening; conditions: post-emerge, 14 days after application, rating scale 0-100
Description: as §2, §3, §4, §5, §6

[11] = system: sicklepod (Cassia obtusifolia, CASOB); test: as above; conditions: post-emerge, 14 days after application, rating scale 0-100
Description: as §2, §3, §4, §5, §6

[12] = system: ivyleaf morningglory (Ipomoea hederacea, IPOHE); test: as above; conditions: post-emerge, 14 days after application, rating scale 0-100
Description: as §2, §3, §4, §5, §6

[13] = system: green foxtail (Setaria viridis, SETVI); test: as above; conditions: post-emerge, 14 days after application, rating scale 0-100
Description: as §2, §3, §4, §5, §6

[14] = system: barnyardgrass (Echinochloa crus-galli, ECHCG); test: as above; conditions: post-emerge, 14 days after application, rating scale 0-100
Description: as §2, §3, §4, §5, §6

[15] = system: lambsquarters (Chenopodium album, CHEAL); test: as above; conditions: post-emerge, 14 days after application, rating scale 0-100
Description: as §2, §3, §4, §5, §6

[16] = system: redroot pigweed (Amaranthus retroflexus, AMARE); test: as above; conditions: post-emerge, 14 days after application
Description: as §2, §3, §4, §5, §6

[17] = system: large crabgrass (Digitaria sanguinalis, DIGSA); test: as above; conditions: post-emerge, 14 days after application, rating scale 0-100
Description: as §2, §3, §4, §5, §6

[18] = system: redroot pigweed (Amaranthus retroflexus, AMARE); test: Pre-emerge test, greenhouse herbicide activity screening; conditions: phytotoxicity rating 0-100, 14 days after application
How it was run: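 Plants grown in 10 cm pots of sandy loam mix received acetone-dissolved compounds through a moving flat-fan nozzle. Doses ranged from 15 to 1000 g ai/ha. Pre-emerge pots were seeded one day earlier, post-emerge pots 8–21 days earlier. Fourteen days on, each pot was graded 0–100 for damage.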

[19] = system: upland rice (Oryza sp., var. Tebonnet, RICE); test: Post-emerge test, crop safety; conditions: post-emerge, 14 days after application, rating scale 0-100
How it was run: (§7)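 Rating: 0–100 visual injury, 14 DAA. Application: acetone, 187 l/ha, 15–1000 g ai/ha, flat-fan track sprayer with nozzle 40–45 cm above soil or canopy. Post-emerge runs used 0.25% v/v surfactant on 2–3 leaf plants.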

[20] = system: field corn (Zea mays L., var. Dekalb 535, CORN); test: Post-emerge test, crop safety; conditions: post-emerge, 14 days after application, rating scale 0-100
How it was run: as §7

[21] = 63 g ai/ha, rating scale 0-100 (0 no damage, 100 complete death)
[22] = 250 g ai/ha, rating scale 0-100

SMILES | Pre-emerge Herbicidal Activity RICE ([1]; 63 g ai/ha) | Pre-emerge Herbicidal Activity RICE ([1]; 250 g ai/ha) | Pre-emerge Herbicidal Activity CORN ([2]; 63 g ai/ha) | Pre-emerge Herbicidal Activity CORN ([2]; 250 g ai/ha) | Pre-emerge Herbicidal Activity ABUTH ([3]; 63 g ai/ha) | Pre-emerge Herbicidal Activity ABUTH ([3]; 250 g ai/ha) | Pre-emerge Herbicidal Activity CASOB ([4]; 63 g ai/ha) | Pre-emerge Herbicidal Activity CASOB ([4]; 250 g ai/ha) | Pre-emerge Herbicidal Activity IPOHE ([5]; 63 g ai/ha) | Pre-emerge Herbicidal Activity IPOHE ([5]; 250 g ai/ha) | Pre-emerge Herbicidal Activity SETVI ([6]; 63 g ai/ha) | Pre-emerge Herbicidal Activity SETVI ([6]; 250 g ai/ha) | Pre-emerge Herbicidal Activity ECHCG ([7]; 63 g ai/ha) | Pre-emerge Herbicidal Activity ECHCG ([7]; 250 g ai/ha) | Pre-emerge Herbicidal Activity CHEAL ([8]; 63 g ai/ha) | Pre-emerge Herbicidal Activity CHEAL ([8]; 250 g ai/ha) | Pre-emerge Herbicidal Activity DIGSA ([9]; 63 g ai/ha) | Pre-emerge Herbicidal Activity DIGSA ([9]; 250 g ai/ha) | phytotoxicity rating ABUTH ([10]; 63 g ai/ha) | phytotoxicity rating ABUTH ([10]; 250 g ai/ha) | also measured
COc1ccc(COC(=O)Nc2c(OC)c(Cl)cc(F)c2-n2c(=O)cc(C(F)(F)F)n(C)c2=O)cc1 [4-40] | 30 | 70 | 0 | 75 | 100 | 100 | 60 | 90 | 30 | 90 | 100 | 100 | 60 | 85 | 100 | 100 | 100 | 100 | 100 | 100 | phytotoxicity rating CASOB ([11]; 63 g ai/ha): 100; phytotoxicity rating CASOB ([11]; 250 g ai/ha): 100; phytotoxicity rating IPOHE ([12]; 63 g ai/ha): 100; phytotoxicity rating IPOHE ([12]; 250 g ai/ha): 100; phytotoxicity rating SETVI ([13]; 63 g ai/ha): 80; phytotoxicity rating SETVI ([13]; 250 g ai/ha): 90; phytotoxicity rating ECHCG ([14]; 63 g ai/ha): 50; phytotoxicity rating ECHCG ([14]; 250 g ai/ha): 90; phytotoxicity rating CHEAL ([15]; 63 g ai/ha): 100; phytotoxicity rating CHEAL ([15]; 250 g ai/ha): 100; phytotoxicity rating AMARE [16, 21]: 100; phytotoxicity rating AMARE [16, 22]: 100; phytotoxicity rating DIGSA ([17]; 63 g ai/ha): 40; phytotoxicity rating DIGSA ([17]; 250 g ai/ha): 90; Pre-emerge Herbicidal Activity AMARE ([18]; 63 g ai/ha): 100; Pre-emerge Herbicidal Activity AMARE ([18]; 250 g ai/ha): 100; phytotoxicity rating RICE (crop damage) ([19]; 63 g ai/ha): 40; phytotoxicity rating RICE (crop damage) ([19]; 250 g ai/ha): 60; phytotoxicity rating CORN (crop damage) ([20]; 63 g ai/ha): 30; phytotoxicity rating CORN (crop damage) ([20]; 250 g ai/ha): 70
COc1c(Cl)cc(F)c(-n2c(=O)cc(C(F)(F)F)n(C)c2=O)c1NC(=O)OCc1ccc2c(c1)OCO2 [4-41] | 40 | 80 | 15 | 65 | 100 | 100 | 100 | 100 | 100 | 100 | 100 | 100 | 80 | 90 | 100 | 100 | 100 | 100 | 100 | 100 | phytotoxicity rating CASOB ([11]; 63 g ai/ha): 100; phytotoxicity rating CASOB ([11]; 250 g ai/ha): 100; phytotoxicity rating IPOHE ([12]; 63 g ai/ha): 100; phytotoxicity rating IPOHE ([12]; 250 g ai/ha): 100; phytotoxicity rating SETVI ([13]; 63 g ai/ha): 95; phytotoxicity rating SETVI ([13]; 250 g ai/ha): 95; phytotoxicity rating ECHCG ([14]; 63 g ai/ha): 80; phytotoxicity rating ECHCG ([14]; 250 g ai/ha): 90; phytotoxicity rating CHEAL ([15]; 63 g ai/ha): 100; phytotoxicity rating CHEAL ([15]; 250 g ai/ha): 100; phytotoxicity rating AMARE [16, 21]: 100; phytotoxicity rating AMARE [16, 22]: 100; phytotoxicity rating DIGSA ([17]; 63 g ai/ha): 90; phytotoxicity rating DIGSA ([17]; 250 g ai/ha): 100; Pre-emerge Herbicidal Activity AMARE ([18]; 63 g ai/ha): 100; Pre-emerge Herbicidal Activity AMARE ([18]; 250 g ai/ha): 100; phytotoxicity rating RICE (crop damage) ([19]; 63 g ai/ha): 50; phytotoxicity rating RICE (crop damage) ([19]; 250 g ai/ha): 85; phytotoxicity rating CORN (crop damage) ([20]; 63 g ai/ha): 75; phytotoxicity rating CORN (crop damage) ([20]; 250 g ai/ha): 90
